target: Recombinant kinase JAK2 (Homo sapiens (Human), UniProt O60674); assay: In vitro JAK kinase inhibition assay (ADP-Glo), JAK2; type: biochemical; settings: 30 μM ATP, peptide IGF-1Rtide, averaged
Method: In Vitro JAK Kinase Inhibition Assay
The effects of the compounds of the invention were analysed in vitro using kinase JAK inhibition assay described below.
Tested compounds were dissolved in 100% DMSO, and obtained stock solutions were serially diluted in the reaction buffer (50 mM Tris pH 7.5, 10 mM MgCl2, 0.25 mM EGTA, 0.1 mM Na3VO4, 0.01% Triton X-100, 2.5 mM DTT). Recombinant kinases JAK1 (ProQinase), JAK2, or JAK3 (Carna Biosciences) were diluted in the dilution buffer (50 mM Tris-HCl pH 7.5, 150 mM NaCl, 10% glycerol, 0.05% Triton X-100, 1 mM DTT) to the final concentration 3 ng/μL (JAK1), 0.1 ng/μL (JAK2), or 0.2 ng/μL (JAK3). 5 μL of obtained solution of the compounds and 5 μL of the solution of respective kinases were added to the well of a 96-well plate. To initiate interaction between tested compounds and an enzyme, the plate was incubated for 10 minutes at 25° C. in a Plate-Thermo-Shaker with orbital stirring at 400 rpm. Wells of a negative control contained all reagents as mentioned above with the exception of tested compounds and kinase, and wells of a positive controls contained all reagents as mentioned above with the exception of tested compounds. […] Then the plate was incubated for 1 hour at 25° C. in a Plate-Thermo-Shaker, with orbital stirring at 400 rpm. Detection of ADP formed in the enzymatic reaction was then performed using ADP-Glo Kinase Assay kit (Promega). For this purpose, to the well of the 96-well plate 25 μL of ADP-Glo Reagent were added, and the plate was incubated for 40 minutes at 25° C. in a Plate-Thermo-Shaker with orbital stirring at 400 rpm. Then to the well of the 96-well plate 50 μL of Kinase Detection Reagent were added and the plate was incubated for 30 minutes at 25° C. in a Plate-Thermo-Shaker with orbital stirring at 400 rpm. After incubation, luminescence intensity was measured using Victor×Light luminometer (Perkin Elmer, Inc.).
On the basis of luminescence measurement in wells containing tested compounds at various concentrations and in control wells, IC50 values were determined. These values were determined with Graph Pad software v. 5.03, by fitting points of the curve using non-linear regression method. Each compound was tested in at least 6 repetitions (6 wells) on two 96-well plates, using at least 3 wells of each control.

Sequence of Recombinant kinase JAK2 (O60674 whole entry): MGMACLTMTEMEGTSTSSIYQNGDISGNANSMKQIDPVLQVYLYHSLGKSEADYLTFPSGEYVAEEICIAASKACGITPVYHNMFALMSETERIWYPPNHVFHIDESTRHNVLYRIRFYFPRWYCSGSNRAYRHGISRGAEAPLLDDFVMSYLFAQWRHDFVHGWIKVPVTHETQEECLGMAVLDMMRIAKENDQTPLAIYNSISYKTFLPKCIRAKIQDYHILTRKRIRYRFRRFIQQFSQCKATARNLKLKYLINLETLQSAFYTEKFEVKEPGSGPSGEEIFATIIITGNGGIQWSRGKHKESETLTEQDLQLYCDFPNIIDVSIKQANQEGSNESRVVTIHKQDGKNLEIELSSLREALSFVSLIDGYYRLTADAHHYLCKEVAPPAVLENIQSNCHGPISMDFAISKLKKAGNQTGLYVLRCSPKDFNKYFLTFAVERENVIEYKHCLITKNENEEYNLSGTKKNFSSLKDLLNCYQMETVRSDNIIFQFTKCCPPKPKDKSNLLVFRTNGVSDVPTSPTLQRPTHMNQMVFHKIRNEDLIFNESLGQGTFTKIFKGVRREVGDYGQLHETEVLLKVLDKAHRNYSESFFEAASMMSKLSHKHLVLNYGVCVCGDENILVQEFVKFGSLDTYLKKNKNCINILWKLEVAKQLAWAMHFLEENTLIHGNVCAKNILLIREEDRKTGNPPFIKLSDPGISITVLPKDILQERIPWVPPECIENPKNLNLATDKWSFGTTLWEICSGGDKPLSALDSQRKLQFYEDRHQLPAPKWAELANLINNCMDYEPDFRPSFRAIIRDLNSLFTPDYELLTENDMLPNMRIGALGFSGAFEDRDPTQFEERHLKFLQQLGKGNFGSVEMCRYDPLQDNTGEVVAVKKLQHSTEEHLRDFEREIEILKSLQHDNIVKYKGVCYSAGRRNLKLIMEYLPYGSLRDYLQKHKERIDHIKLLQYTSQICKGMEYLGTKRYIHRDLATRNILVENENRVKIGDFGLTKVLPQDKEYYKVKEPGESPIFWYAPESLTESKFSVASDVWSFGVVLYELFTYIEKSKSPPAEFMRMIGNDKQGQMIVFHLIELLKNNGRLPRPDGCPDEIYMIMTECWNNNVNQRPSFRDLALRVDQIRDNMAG

First: COc1ccc(-c2cc3ncc(C(N)=O)c(N[C@@H]4CCN(c5ccc(C#N)nn5)CC4(C)C)n3n2)cn1 [Example 4, (R)-7-((1-(6-Cyanopyridazin-3-yl)-3,3-dimethylpiperidin-4-yl)amino)-2-(6-methoxy-pyridin-3-yl)pyrazolo[1,5-a]pyrimidine-6-carboxamide]
Second: COc1cccc(-c2cc3ncc(C(N)=O)c(N[C@@H]4CCN(c5ccc(C#N)nn5)CC4(C)C)n3n2)n1 [Example 11, (R)-7-((1-(6-Cyanopyridazin-3-yl)-3,3-dimethylpiperidin-4-yl)amino)-2-(6-methoxy-pyridin-2-yl)pyrazolo[1,5-a]pyrimidine-6-carboxamide]
The IC50 of the first is 23-fold higher: 27.7 nM for the first, 1.18 nM for the second. The second is the more potent here.

`CC1(C)CN(c2ccc(C#N)nn2)CC[C@H]1Nc1c(C(N)=O)cnc2cc(-c3ccc(N4CCOCC4)nc3)nn12` [Example 7, (R)-7-((1-(6-Cyanopyridazin-3-yl)-3,3-dimethylpiperidin-4-yl)amino)-2-(6-morpholinopyridin-3-yl)pyrazolo[1,5-a]pyrimidine-6-carboxamide] and `Cc1cc(-c2cc3ncc(C(N)=O)c(N[C@@H]4CCN(c5ccc(C#N)nn5)CC4(C)C)n3n2)ccn1` [Example 12, (R)-7-((1-(6-Cyanopyridazin-3-yl)-3,3-dimethylpiperidin-4-yl)amino)-2-(2-methyl-pyridin-4-yl)pyrazolo[1,5-a]pyrimidine-6-carboxamide] are within 1.5-fold of each other in IC50: 3.4 nM for the first, 5.05 nM for the second.

Source: patent US11072619B2, “Pyrazole[1,5-a] pyrimidine derivatives as kinase JAK inhibitors” (CELON PHARMA S.A., priority 2017, dated 2021)
